Experimental findings from ChEMBL document CHEMBL1201862, “PubChem BioAssay data set” (2004) are described below.

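Briefly, cells in 96-well plates were exposed to five compound concentrations for 48 h, and endpoints were estimated by linear interpolation. GI50 is the concentration that inhibits growth by half.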 Active and inactive are the calls of the source. Rule as the data show it: active = GI50 up to about 1.1 µM and inactive = higher. Some results are limits rather than exact numbers.

Test in all cases: NCI anticancer screen, dose series, 48 h
The test system of assay [1] is CAKI-1.
In assay [2] the test system is HCC 2998.
In assay [3] the test system is HCT-116.
The test system of assay [4] is HL-60.
Assay [5] has as its system M14.
Assay [6] has as its system MDA-N.
For assay [7], the system named is Malme-3M.
Assay [8] relates to NCI-H226.
The test system of assay [9] is NCI-H522.
In assay [10] the test system is NCI/ADR-RES.
For assay [11], the system named is PC-3.
The test system of assay [12] is SF-268.
For assay [13], the system named is SK-MEL-28.
The subject of assay [14] is SK-MEL-2.
The subject of assay [15] is SK-MEL-5.
In assay [16] the test system is SK-OV-3.
In assay [17] the test system is SNB-75.
The test system of assay [18] is T47D.
Assay [19] relates to U-251.

Turning to `CC(=O)OCC1OC(O[C@@H]2C[C@H]3C(C)(C)[C@H](OC(C)=O)CC[C@]3(C)[C@H]3CC[C@@]45C[C@H](O)C[C@H](C)[C@@H]4CC=C5[C@@]32C)C(O)C(O)C1O` (some centres undefined), the GI50 in [1] was 11.6 µM (inactive); in [2], 2.03 µM (inactive); in assay [3], 2.08 µM (inactive); in assay [4], 1.84 µM (inactive); in [5], 4.06 µM (inactive); in assay [6], 3.61 µM (inactive). Besides, the GI50 in assay [7] is 6.92 µM (inactive); in assay [8], 4.37 µM (inactive); in [9], 2.72 µM (inactive); in [10], 16 µM (inactive); in assay [11], 3.03 µM (inactive); in [12], 4.01 µM (inactive). In addition, the GI50 was 7.19 µM (inactive) in assay [13]; 2.33 µM (inactive) in [14]; 3.24 µM (inactive) in assay [15]; 9.12 µM (inactive) in assay [16]; 3.16 µM (inactive) in [17]; 3.43 µM (inactive) in [18]. Further, in [19], the GI50 was 3.04 µM (inactive).

As to `O=C1CCN2c3ccccc3[C@H]3Cc4cccc(c4[C@@H]2C3)CCO1`, the GI50 was 41.9 µM (inactive) in assay [1]; > 100 µM (inactive) in [2]; 21.6 µM (inactive) in assay [3]; 25.5 µM (inactive) in assay [4]; 19.4 µM (inactive) in [5]; 26.2 µM (inactive) in assay [6]. Moreover, the GI50 is 25.2 µM (inactive) in assay [7]; 32.9 µM (inactive) in [8]; 28.4 µM (inactive) in [9]; 23.6 µM (inactive) in [10]; 32 µM (inactive) in assay [11]; 72.4 µM (inactive) in [12]. Further, the GI50 in [13] was 56.4 µM (inactive); in [14], 38 µM (inactive); in assay [15], 22.1 µM (inactive); in [16], 51.2 µM (inactive); in assay [17], 27.4 µM (inactive); in [18] it was 36.7 µM (inactive). Moreover, in assay [19], the GI50 was 40.5 µM (inactive).

Take `CC1=NN(C(=O)CC(=O)Nc2cccc(C)c2)C(=O)C1/N=N\c1ccc(S(=O)(=O)c2ccc(/N=N/C3C(=O)N(C(=O)CC(=O)Nc4cccc(C)c4)N=C3C)cc2)cc1` (centres undefined): the GI50 in assay [1], in [2], in assay [3], in assay [4], in assay [5] and in assay [6] was > 100 µM (inactive) each time. For the same molecule, the GI50 was 85.5 µM (inactive) in assay [7]; > 100 µM (inactive) in assay [8]; > 100 µM (inactive) in assay [9]; > 100 µM (inactive) in [10]; > 100 µM (inactive) in [11]; > 100 µM (inactive) in [12]. The GI50 in assay [13], in assay [14], in assay [15], in assay [16], in assay [17] and in assay [18] was > 100 µM (inactive) throughout. Also, in assay [19], the GI50 was > 100 µM (inactive).

Regarding `CCCN(C(=O)c1ccccc1)C(C#N)c1ccc(C(C#N)N(CCC)C(=O)c2ccccc2)cc1` (centres undefined), the GI50 in assay [1], in assay [2], in assay [3], in assay [4], in assay [5] and in [6] was > 100 µM (inactive) throughout. Besides, the GI50 in [7] is > 100 µM (inactive); in assay [8], 20 µM (inactive); in assay [9], > 100 µM (inactive); in assay [10] it was 38.5 µM (inactive); in assay [11] it was 68.9 µM (inactive); in assay [12], 85.9 µM (inactive). The GI50 is > 100 µM (inactive) in [14]; 92.5 µM (inactive) in assay [15]; 22 µM (inactive) in [16]; 18.4 µM (inactive) in [17]; 11.2 µM (inactive) in assay [18]; 40 µM (inactive) in [19].

`O=C1C(N2CCOCC2)=C(Cl)C(=O)c2ncccc21`: the GI50 is > 10 µM (inactive) in [1]; > 6 µM (inactive) in [2]; 1.71 µM (inactive) in assay [3]; 0.212 µM (active) in assay [4]; 2.37 µM (inactive) in assay [5]; 1.97 µM (inactive) in [6]. Also, the GI50 was 1.89 µM (inactive) in assay [7]; > 6.25 µM (inactive) in assay [8]; 1.45 µM (inactive) in [9]; 8.49 µM (inactive) in assay [10]; > 9.62 µM (inactive) in [11]; 2.9 µM (inactive) in assay [12]. Besides, the GI50 was 2.2 µM (inactive) in [13]; 1.87 µM (inactive) in [14]; 1.82 µM (inactive) in assay [15]; > 10 µM (inactive) in [16]; > 10 µM (inactive) in assay [17]; 1.99 µM (inactive) in assay [18]. Moreover, the GI50 in assay [19] is 5.71 µM (inactive).

Consider `Cn1c(=O)[nH]n(-c2ccc3ccccc3c2)c1=O`, for which the GI50 in [1], in assay [2], in assay [3], in [4], in assay [5] and in assay [6] was > 100 µM (inactive) in each case. Besides, the GI50 in assay [7], in [8], in assay [9], in [10], in [11] and in [12] was > 100 µM (inactive) in each case. The GI50 in assay [13], in [14], in assay [15], in [16], in assay [17] and in [18] was > 100 µM (inactive) throughout. In addition, the GI50 in assay [19] is > 100 µM (inactive).

Consider `Clc1ccc(C(Cc2cccc(Cl)c2)c2c(Cl)nc(N3CCNCC3)nc2Cl)cc1` (centres undefined), for which the GI50 in [1] is 12.1 µM (inactive); in assay [2] it was 15.1 µM (inactive); in assay [3], 13.2 µM (inactive); in assay [4], 11.1 µM (inactive); in [5] it was 13.4 µM (inactive); in assay [6], 16.1 µM (inactive). For the same molecule, the GI50 was 13.6 µM (inactive) in [7]; 3.12 µM (inactive) in assay [8]; 14.8 µM (inactive) in assay [9]; 18 µM (inactive) in assay [10]; 16.9 µM (inactive) in assay [11]; 19.5 µM (inactive) in [13]. Moreover, the GI50 in [14] was 21.6 µM (inactive); in assay [15], 16.1 µM (inactive); in assay [16], 13.7 µM (inactive); in [17] it was 13.3 µM (inactive); in [18], 16.4 µM (inactive); in assay [19] it was 16.4 µM (inactive).

Regarding `COc1cc(CNc2nc3cc(C(F)(F)F)ccc3nc2C(=O)O)cc(OC)c1OC`, the GI50 was 25.3 µM (inactive) in [1]; 41.4 µM (inactive) in assay [2]; 15.6 µM (inactive) in [3]; 0.1 µM (active) in assay [4]; 17.5 µM (inactive) in assay [5]; 21.5 µM (inactive) in assay [6]. In addition, the GI50 is 38.6 µM (inactive) in assay [7]; 60.7 µM (inactive) in [8]; 29.2 µM (inactive) in [9]; 24.4 µM (inactive) in [10]; 21.5 µM (inactive) in [11]; 27.7 µM (inactive) in assay [12]. The GI50 in assay [13] is 22.5 µM (inactive); in assay [14] it was 19.9 µM (inactive); in [16] it was 28.4 µM (inactive); in assay [17] it was 19.9 µM (inactive); in assay [18], 21.1 µM (inactive); in assay [19], 15.7 µM (inactive).

Take `Cc1nc(Nc2ccccc2Cl)sc1C(=O)CC(=O)C(=O)Nc1c(Cl)cccc1Cl`: the GI50 in [1] is 84.1 µM (inactive); in assay [2], 39.5 µM (inactive); in assay [3], 18.8 µM (inactive); in assay [4], 8.95 µM (inactive); in assay [5], 29.9 µM (inactive); in assay [6] it was 40 µM (inactive). Moreover, the GI50 is 17.5 µM (inactive) in assay [8]; 19.3 µM (inactive) in assay [9]; 22.3 µM (inactive) in assay [10]; 27.3 µM (inactive) in assay [11]; 35.6 µM (inactive) in assay [12]; 26.2 µM (inactive) in assay [13]. For the same molecule, the GI50 was 16.1 µM (inactive) in assay [14]; 31.7 µM (inactive) in assay [15]; 29.1 µM (inactive) in assay [16]; 24.4 µM (inactive) in assay [17]; 22.8 µM (inactive) in assay [18]; 24.9 µM (inactive) in [19].

For `COC(=O)c1ccccc1NC(=S)NN(C)C`, the GI50 in assay [1], in assay [2], in assay [3], in [4], in assay [5] and in assay [6] was > 100 µM (inactive) each time. Besides, the GI50 in [7], in [8], in assay [9], in [10], in assay [11] and in assay [13] was > 100 µM (inactive) in each case. Besides, the GI50 is > 100 µM (inactive) in assay [14]; > 100 µM (inactive) in assay [16]; 28.6 µM (inactive) in assay [17]; > 100 µM (inactive) in assay [18]; > 100 µM (inactive) in assay [19].
